The target of one data set is Na-K ATPase (Oryctolagus cuniculus, UniProt Q9N0Z6). The data set can be described thus: 50% inhibition of Na-K ATPase by doxorubicin analogs. The conditions noted are these: read-out: Concentration for 50% Inhibition NaK ATPase. It counts as biochemical. An excerpt: (§1) From these facts, it can be deduced, on the basis of the results of Table I as well, that the metallic derivative of doxorubicin formed with the metal proportion 2:1 or higher, lacks the inhibiting effect on the Na-K ATPase, that is to say, they would lack cardiotoxicity. […] The remaining chelates described herein may be expected to behave similarly. […] The compounds have the structure depicted in Formula I wherein R is as in Formula II and R1 is as given.

The subject of data set [1] is leukemia 1210 mouse cells. The data set can be described thus: Inhibition of DNA synthesis of leukemia 1210 mouse cells. The format is cell-based. The note with it: read-out: Percent of Inhibition of DNA Synthesis.
The conditions of data set [2]: cumulative doses; cited from earlier work.
Another data set deals with rabbit electrocardiogram. Nature of the data set: Electrocardiographic alterations after intravenous injection to the rabbit.
The target in data set [3] is T1, ATPase sodium-potassium dependent enzyme (Na-K ATPase) (Oryctolagus cuniculus, UniProt Q9N0Z6).
T1 construct: isolated from rabbit heart; from tissue; host or cells: rabbit heart
The data set can be described thus: Activity of the ATPase Na-K dependent enzyme isolated from rabbit heart. The format is biochemical.
Description: as §1

The test system of data set [4] is leukemia P-338 of the mouse. Nature of the data set: Therapeutic activity in leukemia P-338 of the mouse. It counts as in vivo. The conditions noted are these: 0 mg/kg 11 days.
The test system of data set [5] is spleen weight and immunocompetent cells. The data set can be described thus: Comparative testing of immunosuppressive properties (spleen weight, immunocompetent cells).
A short description of data set [6]: Passage of hematoencephalic and intestinal barriers. The conditions noted are these: in vivo.
A short description of data set [7]: Toxicity: survivors after one intraperitoneal injection in mice. The note with it: mouse, in vivo, ip. As to the method:
The drugs were administered by only one intraperitoneal injection to groups of ten mice and the numbers of survivors were recorded after eight days.

Another data set has as its system leucocytes. Nature of the data set: Hematological toxicity, leucocyte count. The format is in vivo. The note with it: day 7, day 0 4.700.
Setting [8] is: read-out: Percent of the ATPase Na-K Dependent Activity.

Entries after “also recorded” stand apart in the source; their conditions may differ.

Consider `COc1cccc2c1C(=O)c1c(O)c3c(c(O)c1C2=O)CC(O)(/C(C)=N/NC(=O)c1ccc(-c2ccccc2)cc1)CC3OC1CC(N)C(O)C(C)O1` (stereo not shown) [NSC-236672], for which the IC50 at Na-K ATPase is 1 nM.

`COc1cccc2c1C(=O)c1c(O)c3c(c(O)c1C2=O)C[C@@](O)(/C(CO)=N/NC(=O)c1ccc(Cl)c(Cl)c1)C[C@@H]3OC1CC(N)C(O)C(C)O1` (stereo partly shown) [NSC-237672]: on Na-K ATPase, the IC50 worked out at 10000 nM.

For the compound `COc1ccc(C(=O)NN=C(C)[C@]2(O)Cc3c(O)c4c(c(O)c3[C@@H](O[C@H]3C[C@H](N)[C@H](O)[C@H](C)O3)C2)C(=O)c2c(OC)cccc2C4=O)cc1` [NSC-219976], the IC50 on Na-K ATPase turned out to be 1 nM.

As to `COc1cccc2c1C(=O)c1c(O)c3c(c(O)c1C2=O)C[C@@](O)(C(CO)=NNC(=O)c1ccccc1)C[C@@H]3O[C@H]1C[C@H](N)[C@H](O)[C@H](C)O1` [NSC-216071], the IC50 at Na-K ATPase came out at 10000 nM.

As for `COC(=O)[C@]1(O)Cc2c(O)c3c(c(O)c2[C@@H](O[C@H]2C[C@H](N)[C@H](O)[C@H](C)O2)C1)C(=O)c1c(OC)cccc1C3=O` [NSC-237638], the IC50 on Na-K ATPase came to 1 nM.

For `CCCCC(=O)NN=C(C)[C@]1(O)Cc2c(O)c3c(c(O)c2[C@@H](O[C@H]2C[C@H](N)[C@H](O)[C@H](C)O2)C1)C(=O)c1c(OC)cccc1C3=O` [NSC-211391], the IC50 at Na-K ATPase was 1000 nM.

On to `COc1cccc2c1C(=O)c1c(O)c3c(c(O)c1C2=O)C[C@@](O)(/C(C)=N/NC(=O)c1ccc(Cl)c(Cl)c1)C[C@@H]3OC1CC(N)C(O)C(C)O1` (stereo partly shown) [NSC-221266], for which the IC50 at Na-K ATPase turned out to be 1000 nM.

Consider `CCCOc1ccc(C(=O)NN=C(C)[C@]2(O)Cc3c(O)c4c(c(O)c3[C@@H](O[C@H]3C[C@H](N)[C@H](O)[C@H](C)O3)C2)C(=O)c2c(OC)cccc2C4=O)cc1` [NSC-234740], for which, on Na-K ATPase, the IC50 was determined as 10 nM.

In the case of `COc1cccc2c1C(=O)c1c(O)c3c(c(O)c1C2=O)C[C@@](O)(C(=O)CO)C[C@@H]3O[C@H]1C[C@H](N)[C@H](O)[C@H](C)O1` [Doxorubicin], the inhibition – broadly, how much of the control response was suppressed – at 3 µM in data set [1] (3 μM) was found to be 60%. Moreover, in data set [1] (5 μM), the inhibition at 5 µM worked out at 68%. In addition, in data set [1] (7.5 μM), the inhibition at 7.5 µM is 75%. In data set [1] (10 μM), the inhibition at 10 µM is 90%. In data set [2], the “cumulative dose attended by severe, oftentimes lethal cardiotoxicity” value is on record as greater than 500 mg. per square meter. Further, in the data set on rabbit electrocardiogram, the “alterations of the electrocardiogram, in words” value was “very intense”. In data set [3], the “effect of calcium on ATPase inhibition” value is “counteracted by calcium”. In addition, the “inhibition of Na-K ATPase, in words” value in data set [3] is reported as “strong inhibitor; also recorded: potent inhibitor”. In data set [3] (setting [8]), the activity at 10 pM came to 40%. The activity at 0.001 µM in [3] (setting [8]) turned out to be 25%. In addition, in [3] (setting [8]), the activity at 0.1 µM was determined as 25%. For the same compound, in [3] (setting [8]), the activity at 10 µM amounted to 25%. Moreover, the activity at 100 fM in data set [3] (setting [8]) came to 65%. Further, the “Days of Mean Survival of Leukemic Mice” value in data set [4] (4 mg/kg i.p.) stood at 50 days; in data set [4] (8 mg/kg i.p.), 48 days; in [4] (12 mg/kg i.p.), 42 days; in data set [4] (24 mg/kg i.p.) it was 6 days; in data set [4] (36 mg/kg i.p.), 4 days. The “immunosuppression (spleen weight and immunocompetent cells)” value in [5] is “depressed spleen weight and immunocompetent cells to a significant extent”. Further, the “passing both hematoencephalic and intestinal barriers” value in data set [6] was “does not to an effective degree”. Besides, the survival at 192 h in [7] (10 mg/kg) is 100%; in [7] (20 mg/kg) it was 60%; in data set [7] (30 mg/kg), 0%; in data set [7] (40 mg/kg), 0%; in data set [7] (50 mg/kg) it was 0%; in data set [7] (60 mg/kg), 0%. In addition, the “Leucocyte Count/mm^3” value in the data set with leucocytes (10 mg/kg) is reported as 3.300 /mm^3; in the data set with leucocytes (20 mg/kg), 2.400 /mm^3.

On to `COc1cccc2c1C(=O)c1c(O)c3c(c(O)c1C2=O)C[C@@](O)(C(C)=NNC(=O)c1ccc([N+](=O)[O-])cc1)C[C@@H]3O[C@H]1C[C@H](N)[C@H](O)[C@H](C)O1` [NSC-221265], for which the IC50 at Na-K ATPase was 10000 nM.

As for `CCc1ccc(C(=O)N/N=C(\C)[C@]2(O)Cc3c(O)c4c(c(O)c3[C@H](O[C@H]3C[C@H](N)[C@H](O)[C@H](C)O3)C2)C(=O)c2c(OC)cccc2C4=O)cc1` [NSC-233854], the IC50 at Na-K ATPase turned out to be 100 nM.

Regarding `COc1cccc2c1C(=O)c1c(O)c3c(c(O)c1C2=O)C[C@@](O)(C(C)=NNC(=O)c1ccc(O)cc1)C[C@@H]3O[C@H]1C[C@H](N)[C@H](O)[C@H](C)O1` [NSC-221264], the IC50 at Na-K ATPase came to 0.1 nM.

Take `COc1cccc2c1C(=O)c1c(O)c3c(c(O)c1C2=O)C[C@@](O)(C(C)=NNC(=O)c1ccc(N(C)C)cc1)C[C@@H]3O[C@H]1C[C@H](N)[C@H](O)[C@H](C)O1` [NSC-227013]: the IC50 on Na-K ATPase stood at 0.1 nM.

(Values after patent publication US4138480A, “Novel anthracycline glycosides and methods of preparing the same” (priority 1976, dated 1979).)
